“And” between values parts separate entries of the source, which are not always exact repeats. Equal values may be shown once.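 Briefly, cells in 96-well plates were exposed to five compound concentrations for 48 h, and endpoints were estimated by linear interpolation. At the GI50, growth is halved. At the TGI there is no net growth.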
Experiments:
Assay in all cases: NCI tumour cell line growth inhibition, 48 h
K-562 leukemia = test system: K-562 leukemia
HCT-15 colon = test system: HCT-15 colon
NCI/ADR-RES ovarian = test system: NCI/ADR-RES ovarian
COLO 205 colon = test system: COLO 205 colon
IGROV1 ovarian = test system: IGROV1 ovarian
HOP-62 NSCLC = test system: HOP-62 NSCLC
U251 CNS = test system: U251 CNS
SF-539 CNS = test system: SF-539 CNS
HS 578T breast = test system: HS 578T breast
BT-549 breast = test system: BT-549 breast

SMILES | TGI (K-562 leukemia) [µM] | TGI (HCT-15 colon) [µM] | TGI (NCI/ADR-RES ovarian) [µM] | TGI (COLO 205 colon) [µM] | TGI (IGROV1 ovarian) [µM] | TGI (HOP-62 NSCLC) [µM] | TGI (U251 CNS) [µM] | TGI (SF-539 CNS) [µM] | TGI (HS 578T breast) [µM] | GI50 (BT-549 breast) [µM] | TGI (BT-549 breast) [µM] | GI50 (COLO 205 colon) [µM] | GI50 (SF-539 CNS) | GI50 (HS 578T breast) [µM] | GI50 (K-562 leukemia) | GI50 (HCT-15 colon) | GI50 (NCI/ADR-RES ovarian) | GI50 (IGROV1 ovarian) | GI50 (HOP-62 NSCLC) | GI50 (U251 CNS) [µM]
CN(C)c1cccc2c1C(=O)C=CC21c2ccc(N(C)C)c3c(N(C)C)ccc(c23)C(c2ccccc2)C1c1ccccc1 (stereo not given) | > 100 | 66.8 | 58.9 | 25.7 | 29.3 | 39.2 | 25.8 | 26 | 45.3 |  |  |  |  |  |  |  |  |  |  | 
C=C1C(=O)C23C(O)CC4C5(C)CCCC4(C(O)OC5)C2C(OC(C)=O)CC1C3O (stereo not given) | 11.7 | 27.4 |  | 18.9 | 39.2 | 32.2 | 30.7 | 25.8 |  |  |  |  |  |  |  |  |  |  |  | 
CC(=O)Oc1c(C)c(C)c2c(c1C)CCC(C)(CC(=O)OCCCCCCCCCCC[P+](c1ccccc1)(c1ccccc1)c1ccccc1)O2 (stereo not given) |  |  |  | 1.39 |  |  |  | 1.47 | 3.28 | 0.314 | 0.99 | 0.391 | 0.411 µM | 0.413 |  |  |  |  |  | 
c1ccc2c(c1)CCCC/C2=N/OCC1CO1 (stereo not given) | > 100 | > 100 |  | > 100 | > 100 |  | > 100 | > 100 |  |  |  |  |  |  |  |  |  |  |  | 
COc1ccc([C@H]2C=[N+]([O-])O[C@H](OC3CCCC3)[C@@H]2OC(C)=O)cc1OC | > 100 | 78.5 | 63.6 | 30.9 | 52.4 | > 100 | > 100 | 38 | 78.5 |  |  |  |  |  |  |  |  |  |  | 
Cc1cc(C)c(/C=C(\C(=C/c2c(C)cc(C)cc2C)[N+](=O)[O-])[N+](=O)[O-])c(C)c1 | > 100 |  |  | > 100 | > 100 | > 100 | > 100 | > 100 |  |  | > 100 |  |  |  |  |  |  |  |  | 
CC1(C)CC(C#Cc2ccccc2)CC(C)(C)N1O | > 100 | 29 | 73.8 | 49.4 | > 100 | 32.7 | 64.6 | 51.8 | 44.9 |  |  |  |  |  |  |  |  |  |  | 
COc1cccc2c1OCC1Cc3ccccc3OC21 (stereo not given) | > 100 | > 100 | > 100 | 96.1 | > 100 | > 100 | > 100 | > 100 |  |  | 52.2 |  |  |  |  |  |  |  |  | 
O=C1C2=Nc3ccccc3C(O)(C(=O)O)N2c2ccccc21 (stereo not given) | > 100 | > 100 | > 100 | 36.6 | > 100 | > 100 | > 100 | 48.4 | > 100 |  |  |  |  |  |  |  |  |  |  | 
COc1cc(/C=C2\CCC(C)/C(=C\c3cc(OC)c(OC)c(OC)c3)C2=O)cc(OC)c1OC (stereo not given) | 6.26 | 6.57 |  | 5.2 | 6.58 | 9.3 | > 100 |  | > 100 |  | 3.53 |  |  |  |  |  |  |  |  | 
O=C1c2cccc(O)c2C(=O)c2c(O)cc(CO)cc21 |  | > 100 |  | > 100 |  | > 100 | > 100 |  |  |  |  |  |  |  |  |  |  |  |  | 
O=[N+]([O-])/C(Cl)=C(\NCCN/C(C(Cl)=C(Cl)Cl)=C(/Cl)[N+](=O)[O-])C(Cl)=C(Cl)Cl | > 100 | > 100 | > 100 | > 100 | > 100 | > 100 | > 100 | > 100 |  |  | > 100 |  |  |  |  |  |  |  |  | 
C[C@H]1OC(=O)[C@@H]2N=NN(Cc3ccccc3)[C@H]12 | > 100 | > 100 | > 100 | > 100 |  | > 100 | > 100 | > 100 |  |  |  |  |  |  |  |  |  |  |  | 
CC(C)C(N)C(=O)NC(CCC(=O)NCCCCC(N)C(=O)NCCCNc1ccc([N+](=O)[O-])c2[nH]c3ccccc3c(=O)c12)C(N)=O (stereo not given) | > 100 | > 100 | > 100 | > 100 |  | > 100 | > 100 |  |  |  | 29.4 |  |  |  |  |  |  |  |  | 
O=C(NN1C(=O)CSC1c1cccc(F)c1)c1ccncc1 (stereo not given) | > 100 | > 100 |  | > 100 | > 100 |  | > 100 | > 100 |  |  |  |  |  |  |  |  |  |  |  | 
CSc1nc2c(ncn2C2OC(CO)C(O)C(O)C2O)c(=O)[nH]1 (stereo not given) | > 100 | > 100 | > 100 | > 100 | > 100 | > 100 | > 100 | > 100 |  |  |  |  |  |  |  |  |  |  |  | 
O=C(O)/C=C\C(=O)Nc1ccc(S(=O)(=O)c2ccc(NC(=O)/C=C\C(=O)O)cc2)cc1 | > 100 | > 100 |  | > 100 | > 100 | > 100 | > 100 | > 100 |  |  |  |  |  |  |  |  |  |  |  | 

SMILES | TGI (K-562 leukemia) [µM] | TGI (HCT-15 colon) [µM] | TGI (NCI/ADR-RES ovarian) [µM] | TGI (COLO 205 colon) [µM] | TGI (IGROV1 ovarian) [µM] | TGI (HOP-62 NSCLC) [µM] | TGI (U251 CNS) [µM] | TGI (SF-539 CNS) [µM] | TGI (HS 578T breast) [µM] | GI50 (BT-549 breast) [µM] | TGI (BT-549 breast) [µM] | GI50 (COLO 205 colon) [µM] | GI50 (SF-539 CNS) | GI50 (HS 578T breast) [µM] | GI50 (K-562 leukemia) | GI50 (HCT-15 colon) | GI50 (NCI/ADR-RES ovarian) | GI50 (IGROV1 ovarian) | GI50 (HOP-62 NSCLC) | GI50 (U251 CNS) [µM]
C=CC(=O)N1C/C(=C\c2ccc(Cl)cc2)C(=O)/C(=C/c2ccc(Cl)cc2)C1 |  | 0.497 | 9.41 | 0.719 | 0.678 | 1.02 | 0.983 | 0.419 | 1.36 |  | 1.09 |  |  |  |  |  |  |  |  | 
O=C1C(C(O)(C(F)(F)F)C(F)(F)F)CCC1C(O)(C(F)(F)F)C(F)(F)F (stereo not given) | > 100 | > 100 | 32.6 | 1.86 | > 86 |  | 99.5 | > 43.5 | 51.9 |  |  |  |  |  |  |  |  |  |  | 
CCN(CCCl)c1cc(CN(C)C)cc(NC(=O)c2ccc(C(=O)Nc3cccc(CN(C)C)c3)cc2)c1 | 1.42 | > 100 | > 100 | 2.41 | 10 | 10.8 | 0.667 | 2.99 | 0.671 |  |  |  |  |  |  |  |  |  |  | 
O=C(CC(C(=O)c1ccco1)c1ccco1)c1ccco1 (stereo not given) | > 100 |  | > 100 | > 100 | > 100 | > 100 | > 100 | > 100 | > 100 |  |  |  |  |  |  |  |  |  |  | 
C=CCN1C(=O)/C(=C/c2ccc(C)cc2)N=C1SC1OC(COC(C)=O)C(OC(C)=O)C(OC(C)=O)C1OC(C)=O (stereo not given) | > 100 | > 100 | > 100 | > 100 | > 100 | > 100 | > 100 | > 100 |  |  | > 100 |  | 16.7 µM and 41.6 µM |  | > 73.9 µM and 29.9 µM | > 100 µM and 29.7 µM | > 100 µM and 32.5 µM | > 100 µM and 24.7 µM | 5.17 µM and 47.4 µM | 
COc1ccc(-n2nc(C)c3c(Nc4ccc(NC(=O)Nc5ccc(Cl)c(C(F)(F)F)c5)cc4)ncnc32)cc1 |  | 3.09 | 6.22 | 3.64 | 7.23 | 3.66 | 3.08 | 3.2 | 4.2 | 2.08 | 6.34 | 1.71 | 1.24 µM | 1.58 |  | 1.42 µM | 1.78 µM | 2.23 µM | 1.83 µM | 1.15
O=C1OC(c2ccccc2)N(C(=O)c2ccccc2)C1Cc1ccc(OCc2ccccc2)cc1 (stereo not given) | > 100 | > 100 | > 100 | > 100 | > 100 | > 100 | > 100 | > 100 | > 100 |  |  |  |  |  |  |  |  |  |  | 
C[C@]12CC[C@@H]3c4ccc(O)cc4CC[C@H]3[C@@H]1C/C(=C\c1ccc(C#N)cc1)C2=O | > 100 | > 100 | > 100 | > 100 | > 100 | > 100 | > 100 | > 100 |  |  | > 100 |  |  |  |  |  |  |  |  | 
CC(C)C1=C(O)C2=C(C(=O)C1=O)C1(C)CCCC(C)(C)C1C(O)C2OC=O (stereo not given) | > 100 | 16.4 |  | 12.5 | 22.2 | > 100 | 17.1 | 31.5 | 98.8 |  | 21.5 |  |  |  |  |  |  |  |  | 
Nc1ccc(-c2nn3c(COc4ccc(Cl)cc4)nnc3s2)cc1 | > 100 | > 100 | > 100 | > 100 | > 100 | > 100 | > 100 | > 100 | > 100 |  |  |  | 34.5 µM |  |  |  |  |  | 20.2 µM | 
CON(C)C(=O)C1CCCO1 (stereo not given) | > 100 | > 100 | > 100 | > 100 | > 100 | > 100 | > 100 | > 100 | > 100 |  |  |  |  |  |  |  |  |  |  | 
O=[N+]([O-])c1ccc2c(c1)c(N=NC(=S)Nc1ccc(Cl)cc1)c(O)n2CN1CCOCC1 |  | 11.4 | 5.9 | 27.8 | 18.1 |  | 20.1 | 26.4 | 28.4 |  |  |  |  |  |  |  |  |  |  | 
CN1CCN(C2=C(Cl)C3(OCCS3)C(F)(F)C2(F)F)CC1 (stereo not given) | > 100 | > 100 | > 100 | > 100 | > 100 | > 100 | > 100 | > 100 | > 100 |  |  |  |  |  |  |  |  |  |  | 
COc1cc([N+](=O)[O-])c(OC)c2c(Nc3ccc(S(=O)(=O)O)c4cc(S(=O)(=O)O)cc(S(=O)(=O)O)c34)cc(C)nc12 |  |  | > 100 | > 100 | > 100 | > 100 | > 100 | > 100 | > 100 |  | > 100 |  |  |  |  |  |  |  |  | 
CC1(C)OC2COC3([C@@H]4OC(C)(C)O[C@@H]4CO)OC(C)(C)OC3C2O1 (stereo not given in full) | > 100 | > 100 | > 100 | > 100 | > 100 | > 100 | > 100 | > 100 |  |  | > 100 |  |  |  |  |  |  |  |  | 
CC#CC(O)(C(=O)OC1CC(C)N(C)C(C)(C)C1)C1CCCC1 (stereo not given) | > 100 | > 100 | 93.6 | > 100 | > 100 | > 100 | > 100 | > 100 |  |  | > 100 |  |  |  |  |  |  |  |  | 

— PubChem BioAssay (NCI)
